From US11261425B2, “Method for inducing differentiation of pluripotent stem cells into neural precursor cells” (Kyoto University, priority 2009, dated 2022) come the findings set out here.

Holding throughout (type): cell-based, Human
Assay [1] has as its system iPS cells (G4). The experiment in a line: Differentiation of iPS cells into neural precursor cells on PA6 feeder cells (SDIA method), immunostaining. The following applies: day 14, PA6 feeder cells; for Nestin and Oct3/4 immunostaining of colonies: 2 μM Dorsomorphin and/or 10 μM SB431542. The protocol: Human ES cells (KhES-1, KhES-2, and KhES-3) from the Institute for Frontier Medical Sciences, Kyoto University were provided, and they were then cultured by the known method (Suemori H, et al. Biochem Biophys Res Commun. 345: 926-32, 2006). Human iPS cells (G1, G4, B6, and B7) were provided by Dr. Yamanaka of Kyoto University and then cultured by the known method (Takahashi K, et al. Cell. 131: 861-72, 2007 and Nakagawa M, et al. Nat Biotechnol. 26: 101-6, 2008). PA6 cells (RIKEN BRC Cell Bank) were seeded on a gelatin-coated dish and then cultured using MEM alpha containing 10% FBS. Upon induction of differentiation, cells were cultured for at least one day, confirmed to be confluent, and then used as feeder cells. Human iPS cells (404C2) was established by introducing reprogramming factors (OCT3/4, SOX2, KLF4, L-MYC, LIN28, and shRNA for p53) into human fibroblast using a vector containg EBNA-1 and oriP (U.S. 61/232,402 and U.S. 61/307,306), then cultured by same method of other human iPS cells.
ES cells or iPS cells were cultured using STO cells as feeder cells. One day before the initiation of differentiation induction, 10 μM ROCK inhibitor (Y27632) was added into a medium. CTK dissociation solution (0.25% Trypsin, 1 mg/ml Collagenase and KSR 20%, and 1 mM CaCl2) was added at 500 μl/10 cm dish, followed by 3 to 5 minutes of incubation at 37° C. The dish was gently tapped to remove feeder cells. After washing once with PBS, the CTK dissociation solution was added again, followed by 10-15 minutes of incubation at 37° C. ES cells or iPS cells detached from the dish were suspended in 5 ml of differentiation medium (DMEM/Ham's F12 containing 5% knockout serum replacement (KSR), 2 mM L-glutamine, non-essential amino acids, and 1 μM 2-mercaptoethanol (2-ME)). After centrifugation, supernatants were removed. Again, the cells were suspended in 1 ml of the differentiation medium and then separated from each other by pipetting, so as to result in small aggregates (10-20 cells/clump).
The obtained small aggregates were seeded on dishes having PA6 as feeder cells at concentrations ranging from 2500 to 5000 cells/cm^2. As a medium, a differentiation medium containing 2 μM Dorsomorphin (Sigma) and/or 10 μM SB431542 (Sigma) and/or 300 ng/ml Noggin (HZ-1026: HumanZyme) or 2 μl/well DMSO was used. 10 μM Y27632 was added only in the initial culture. Medium exchange was not performed until day 7, and it was then performed once every 3 to 4 days.
On day 14 after differentiation induction, cells were fixed with 4% PFA for 30 minutes at 4° C. and then immunostained in PBS with each antibody listed in Table 1.

In assay [2] the test system is KhES-1, KhES-2, KhES-3, G1, G4, B6, and B7. The experiment in a line: SDIA method, colony counts per well in 7 ES/iPS cell lines. The following applies: day 14, 7 cell lines; for Number of colonies per well compared with control group or Noggin group: n=28. The protocol: When at least one positive cell could be confirmed within a colony, such colony was counted as a positive colony. […] Biochem Biophys Res Commun. 345: 926-32, 2006). Human iPS cells (G1, G4, B6, and B7) were provided by Dr. Yamanaka of Kyoto University and then cultured by the known method (Takahashi K, et al. Cell. 131: 861-72, 2007 and Nakagawa M, et al. Nat Biotechnol. 26: 101-6, 2008). PA6 cells (RIKEN BRC Cell Bank) were seeded on a gelatin-coated dish and then cultured using MEM alpha containing 10% FBS. Upon induction of differentiation, cells were cultured for at least one day, confirmed to be confluent, and then used as feeder cells. […] ES cells or iPS cells were cultured using STO cells as feeder cells. One day before the initiation of differentiation induction, 10 μM ROCK inhibitor (Y27632) was added into a medium. […] The dish was gently tapped to remove feeder cells. After washing once with PBS, the CTK dissociation solution was added again, followed by 10-15 minutes of incubation at 37° C. ES cells or iPS cells detached from the dish were suspended in 5 ml of differentiation medium (DMEM/Ham's F12 containing 5% knockout serum replacement (KSR), 2 mM L-glutamine, non-essential amino acids, and 1 μM 2-mercaptoethanol (2-ME)). After centrifugation, supernatants were removed. Again, the cells were suspended in 1 ml of the differentiation medium and then separated from each other by pipetting, so as to result in small aggregates (10-20 cells/clump). The obtained small aggregates were seeded on dishes having PA6 as feeder cells at concentrations ranging from 2500 to 5000 cells/cm^2. As a medium, a differentiation medium containing 2 μM Dorsomorphin (Sigma) and/or 10 μM SB431542 (Sigma) and/or 300 ng/ml Noggin (HZ-1026: HumanZyme) or 2 μl/well DMSO was used. 10 μM Y27632 was added only in the initial culture. Medium exchange was not performed until day 7, and it was then performed once every 3 to 4 days. On day 14 after differentiation induction, cells were fixed with 4% PFA for 30 minutes at 4° C. and then immunostained in PBS with each antibody listed in Table 1. […]

For assay [3], the system named is KhES-1 cell line and KhES-4 cell line. Description: Optimal concentration of LDN-193189 with SB431542 (SDIA method), KhES-1 and KhES-4. The following applies: day 14, with SB431542, PA6 cells. Here is the method: (§1) On one day before the initiation of differentiation induction, CTK dissociation solution (0.25% Trypsin, 1 mg/ml Collagenase and KSR 20%, and 1 mM CaCl2) was added to ES cells (KhES-1, KhES-4, and KhES-5), colonies were dissociated. ES cells detached from the dish were subjected to removal of MEF on gelatin coating, suspended in a differentiation medium (DMEM/Ham's F12 containing 5% knockout serum replacement (KSR), 2 mM L-glutamine, non-essential amino acids, and 1 μM 2-mercaptoethanol (2-ME)) for 1 hour, and then separated by pipetting so as to result in small aggregates (10-20 cells/clump). The obtained small aggregates were seeded on PA6 at a concentration ranging from 2500 to 5000 cells/cm^2. On day 4 of culture, the medium was exchanged with a differentiation medium supplemented with 10 μM SB431542 and 5-1,000 nM LDN-193189. Three days later, the medium was exchanged with a differentiation medium without SB431542 and LDN-193189. Thereafter, medium exchanges with such a differentiation medium without SB431542 and LDN-193189 were performed at 2- to 3-day intervals.
Human ES cells (KhES-1, KhES-4, and KhES-5) were subjected to differentiation induction performed by a stromal cell-derived inducing activity method (SDIA method) using LDN-193189 at a concentration ranging from 5 nM to 1000 nM, in order to determine an optimal concentration of LDN-193189.

Assay [4] has as its system KhES-5 cells. Description: Optimal concentration of LDN-193189 with SB431542 (SDIA method), KhES-5. The following applies: day 14, with SB431542, PA6 cells. Here is the method:
Differentiation was induced by co-culturing an ES cell line (Kh-ES5) with PA6 cells according to the SDIA method, then culturing the cells in a medium supplemented with 5-500 nM LDN-193189 and SB431542.
as §1, with “intervals. […]” for “intervals.”

A value given as a limit tells only on which side of the number the result lay.

For `NC(=O)c1ccc(-c2nc(-c3ccc4c(c3)OCO4)c(-c3ccccn3)[nH]2)cc1` [SB431542, 4-[4-(1,3-benzodioxol-5-yl)-5-(2-pyridinyl)-1H-imidazol-2-yl]benzamide], in assay [1], the “Immunostaining for undifferentiation markers Nanog or SSEA3 and neural markers Pax6 or PSA-NCAM” value is recorded as “neural precursor cells appeared in aggregated cell populations”; the “Nestin and Oct3/4 immunostaining of colonies” value is reported as “aggregated cell populations were positive for Nestin”. In assay [2], the “Elimination of undifferentiated cells (Nestin-positive vs Oct3/4-positive colonies)” value is given as “effective in elimination of undifferentiated cells” and the “Number of colonies per well compared with control group or Noggin group” value is given as “significantly higher”.

Turning to `c1cc(-c2cnn3cc(-c4ccc(OCCN5CCCCC5)cc4)cnc23)ccn1` [Dorsomorphin, 6-[4-(2-piperidin-1-yl-ethoxy)phenyl]-3-pyridin-4-yl-pyrazolo[1,5-a]pyrimidine], in assay [1], the “Immunostaining for undifferentiation markers Nanog or SSEA3 and neural markers Pax6 or PSA-NCAM” value is “undifferentiated cells and neural precursor cells coexisted”; the “Nestin and Oct3/4 immunostaining of colonies” value is “colonies positive for both Nestin and Oct3/4 were confirmed”. For the same molecule, the “Number of colonies per well compared with control group or Noggin group” value in assay [2] is “significantly higher”.

Turning to `c1ccc2c(-c3cnn4cc(-c5ccc(N6CCNCC6)cc5)cnc34)ccnc2c1` [LDN-193189, 4-(6-(4-(piperazin-1-yl)phenyl)pyrazolo[1,5-a]pyrimidin-3-yl)quinoline], the “Concentration of LDN-193189 at which cells were stained to the highest degree with Pax6” value in assay [3] stood at 20 nM. In assay [4], the “Concentration of LDN-193189 at which differentiation into neural precursor cells was induced relatively successfully (Nestin staining)” value is not below 50 nM and the “Increase of effect at LDN-193189 concentration higher than 50 nM” value is given as “not observed that the effect was increased”.
